According to US10023593B2, “ALK kinase inhibitor, and preparation method and uses thereof” (BEIJING PEARL BIOTECHNOLOGY LIMITED LIABILITY COMPANY, priority 2014, dated 2018):

What was measured:
cytochrome P450 2C9 = cytochrome P450 2C9 (Homo sapiens, UniProt P11712); assay: Inhibitory activity on cytochrome P450 2C9; type: in vitro ADME; conditions: no significant inhibition
L1196M mutant ALK kinase = biological target: T1, L1196M mutant ALK kinase (Homo sapiens, UniProt Q9UM73, L1196M); assay: HTRF KinEASE-TK assay, inhibitory activity on L1196M mutant ALK kinase; type: biochemical; conditions: L1196M mutant ALK 1 ng/μl, substrate 1 μM, ATP 5 μM, 30° C. 35 minutes, read-out: Inhibition on ALK kinases (L1196M mutant), IC50
T1 construct: purchased Sino-US Crown Bioscience, Inc. batch number ALKm_20110923
Method in brief: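 HTRF TK assay: mutant kinase 1 ng/μl, substrate 1 μM, ATP 5 μM, 5 mM MgCl2, 1 mM DTT, 1% DMSO, 35 min at 30 °C. 665/615 ratio read; inhibition normalised to no-compound and 10.4 μM LDK-378 controls; IC50 from curve fit.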

cytochrome P450 2C19 = cytochrome P450 2C19 (Homo sapiens, UniProt P33261); assay: Inhibitory activity on cytochrome P450 2C19; type: in vitro ADME; conditions: no significant inhibition
cytochrome P450 3A4 = cytochrome P450 3A4 (Homo sapiens, UniProt P08684); assay: Inhibitory activity on cytochrome P450 3A4; type: in vitro ADME; conditions: no significant inhibition
NCI-H2228 cell line = assay: CellTiter-Glo cell proliferation inhibition on NCI-H2228 cell line; type: cell-based; conditions: Homo sapiens, NCI-H2228 cells, 5000 cells/well, 4 days drug treatment
Method in brief: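 NCI-H2228 cells, 5000/well in RPMI-1640 + 10% FBS, treated with compounds 2 h after seeding (0.5% DMSO final) for 4 days at 37° C. Viability by CellTiter-Glo luminescence; inhibition relative to DMSO control, IC50 from curve fit.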

T1 sequence (Q9UM73 19-1620 L1196M): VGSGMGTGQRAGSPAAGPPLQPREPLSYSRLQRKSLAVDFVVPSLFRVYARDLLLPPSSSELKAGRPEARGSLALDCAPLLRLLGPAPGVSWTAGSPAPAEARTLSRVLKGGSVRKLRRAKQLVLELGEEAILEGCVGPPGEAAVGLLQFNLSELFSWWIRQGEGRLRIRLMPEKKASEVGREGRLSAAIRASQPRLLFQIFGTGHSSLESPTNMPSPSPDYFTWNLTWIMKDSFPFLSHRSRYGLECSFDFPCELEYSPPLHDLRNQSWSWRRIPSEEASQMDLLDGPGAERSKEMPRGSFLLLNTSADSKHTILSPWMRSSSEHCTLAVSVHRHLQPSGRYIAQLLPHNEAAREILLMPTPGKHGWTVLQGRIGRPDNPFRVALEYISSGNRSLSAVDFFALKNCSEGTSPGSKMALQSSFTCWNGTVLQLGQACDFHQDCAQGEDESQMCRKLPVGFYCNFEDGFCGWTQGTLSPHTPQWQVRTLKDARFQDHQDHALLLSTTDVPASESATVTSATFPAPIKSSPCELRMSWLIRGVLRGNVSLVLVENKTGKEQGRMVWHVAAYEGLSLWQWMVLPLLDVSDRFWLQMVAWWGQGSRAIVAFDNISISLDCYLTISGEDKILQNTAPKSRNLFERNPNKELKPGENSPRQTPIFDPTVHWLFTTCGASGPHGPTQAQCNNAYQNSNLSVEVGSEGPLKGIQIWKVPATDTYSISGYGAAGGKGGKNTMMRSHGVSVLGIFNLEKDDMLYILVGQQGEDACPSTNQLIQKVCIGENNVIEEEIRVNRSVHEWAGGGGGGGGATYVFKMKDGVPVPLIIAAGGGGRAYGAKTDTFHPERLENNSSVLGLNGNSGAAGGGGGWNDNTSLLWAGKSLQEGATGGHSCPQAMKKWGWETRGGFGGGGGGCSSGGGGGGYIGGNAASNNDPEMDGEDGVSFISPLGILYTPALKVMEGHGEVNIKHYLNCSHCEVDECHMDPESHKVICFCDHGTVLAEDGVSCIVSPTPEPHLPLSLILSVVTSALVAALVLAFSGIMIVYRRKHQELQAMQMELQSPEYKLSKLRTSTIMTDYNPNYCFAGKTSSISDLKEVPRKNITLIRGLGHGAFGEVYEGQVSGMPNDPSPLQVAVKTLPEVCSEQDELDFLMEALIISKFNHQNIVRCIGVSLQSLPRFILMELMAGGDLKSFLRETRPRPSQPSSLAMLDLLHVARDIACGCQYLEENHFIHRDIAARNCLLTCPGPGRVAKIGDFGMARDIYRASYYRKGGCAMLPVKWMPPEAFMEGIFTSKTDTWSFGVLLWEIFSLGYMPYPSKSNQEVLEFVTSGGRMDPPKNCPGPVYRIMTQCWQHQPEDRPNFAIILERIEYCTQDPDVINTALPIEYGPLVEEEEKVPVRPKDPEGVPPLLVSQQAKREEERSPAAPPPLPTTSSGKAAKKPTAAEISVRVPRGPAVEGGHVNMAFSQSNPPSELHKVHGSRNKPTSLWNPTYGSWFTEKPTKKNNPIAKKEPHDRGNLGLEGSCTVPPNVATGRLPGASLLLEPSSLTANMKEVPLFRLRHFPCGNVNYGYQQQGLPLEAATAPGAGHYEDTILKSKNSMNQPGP
Sequence of cytochrome P450 2C9 (P11712 whole entry): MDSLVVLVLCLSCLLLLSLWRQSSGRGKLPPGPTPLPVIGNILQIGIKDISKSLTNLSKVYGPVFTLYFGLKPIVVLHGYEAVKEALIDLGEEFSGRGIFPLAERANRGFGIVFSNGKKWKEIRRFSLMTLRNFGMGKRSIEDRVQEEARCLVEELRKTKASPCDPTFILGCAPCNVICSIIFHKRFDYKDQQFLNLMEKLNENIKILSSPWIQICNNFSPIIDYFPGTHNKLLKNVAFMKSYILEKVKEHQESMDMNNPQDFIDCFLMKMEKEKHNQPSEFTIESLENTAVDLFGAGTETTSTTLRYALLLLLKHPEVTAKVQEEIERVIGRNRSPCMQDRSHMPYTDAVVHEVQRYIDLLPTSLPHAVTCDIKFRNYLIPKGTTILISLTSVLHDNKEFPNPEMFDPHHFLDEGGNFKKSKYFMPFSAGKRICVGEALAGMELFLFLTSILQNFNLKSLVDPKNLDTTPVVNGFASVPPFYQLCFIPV
Sequence of cytochrome P450 2C19 (P33261 whole entry): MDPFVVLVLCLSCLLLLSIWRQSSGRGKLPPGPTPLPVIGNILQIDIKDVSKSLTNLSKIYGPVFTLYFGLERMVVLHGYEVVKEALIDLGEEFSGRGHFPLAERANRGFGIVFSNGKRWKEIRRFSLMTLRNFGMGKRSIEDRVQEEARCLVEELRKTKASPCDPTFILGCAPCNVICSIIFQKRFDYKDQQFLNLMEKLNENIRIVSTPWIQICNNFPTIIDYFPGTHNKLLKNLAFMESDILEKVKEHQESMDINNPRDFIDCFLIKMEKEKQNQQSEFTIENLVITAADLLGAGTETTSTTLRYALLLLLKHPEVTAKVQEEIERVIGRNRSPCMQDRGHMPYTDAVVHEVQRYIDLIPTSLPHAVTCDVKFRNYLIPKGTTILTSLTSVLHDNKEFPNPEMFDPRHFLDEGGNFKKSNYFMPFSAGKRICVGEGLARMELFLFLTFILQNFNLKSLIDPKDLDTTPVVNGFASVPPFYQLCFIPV
Sequence of cytochrome P450 3A4 (P08684 whole entry): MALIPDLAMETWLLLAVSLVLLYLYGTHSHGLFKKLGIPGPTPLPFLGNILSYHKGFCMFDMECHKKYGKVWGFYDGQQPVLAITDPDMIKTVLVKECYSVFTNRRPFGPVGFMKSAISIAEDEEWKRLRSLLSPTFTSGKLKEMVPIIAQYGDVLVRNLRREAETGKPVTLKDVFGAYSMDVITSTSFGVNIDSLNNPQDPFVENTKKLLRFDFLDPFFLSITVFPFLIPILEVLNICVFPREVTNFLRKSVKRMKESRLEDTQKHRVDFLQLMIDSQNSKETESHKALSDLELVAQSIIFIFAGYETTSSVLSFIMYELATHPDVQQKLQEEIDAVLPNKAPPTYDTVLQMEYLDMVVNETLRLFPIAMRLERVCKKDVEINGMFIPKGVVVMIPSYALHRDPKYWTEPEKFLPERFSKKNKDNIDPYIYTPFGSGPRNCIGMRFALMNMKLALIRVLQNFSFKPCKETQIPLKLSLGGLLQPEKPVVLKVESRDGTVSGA

Row | Structure (SMILES) | IC50 (cytochrome P450 2C9) [nM] | IC50 (L1196M mutant ALK kinase) [nM] | IC50 (cytochrome P450 2C19) [nM] | IC50 (cytochrome P450 3A4) [nM] | IC50 (NCI-H2228 cell line; NCI-H2228, 96 h) [nM] | IC50 (NCI-H2228 cell line; 96 h) [nM]
1 | CC(C)S(=O)(=O)c1nn(C2CC2)cc1Nc1nc(Nc2cc(F)c(C3CCN(C)CC3)cc2OC2CC2)ncc1Cl [Final product 46] | > 10000 | 6 | > 10000 | > 10000 | 127 | 
2 | CC(C)S(=O)(=O)c1nn(C)cc1Nc1nc(Nc2ccc(C3CCN(C)CC3)cc2OC2CC2)ncc1Cl [Final product 40] | > 10000 | 5 | > 10000 | > 10000 | 36 | 
3 | Cc1cc(Nc2ncc(Cl)c(Nc3cn(C)nc3S(=O)(=O)C(C)C)n2)c(OC2CC2)cc1C1CCN(CCN(C)C)CC1 [Final product 146, 5-chloro-N^2-(2-cyclopropoxy-4-(1-(2-(dimethylamino)ethyl)piperidin-4-yl)-5-methylphenyl)-N^4-(3-(isopropylsulfonyl)-1-methyl-1H-pyrazol-4-yl)-pyrimidin-2,4-diamine] | > 10000 | 5 | > 10000 | > 10000 |  | 199

Continued, in another order:

Row | IC50 (cytochrome P450 2C9) [nM] | IC50 (L1196M mutant ALK kinase) [nM] | IC50 (cytochrome P450 2C19) [nM] | IC50 (cytochrome P450 3A4) [nM] | IC50 (NCI-H2228 cell line; NCI-H2228, 96 h) [nM] | Structure (SMILES) | IC50 (NCI-H2228 cell line; 96 h) [nM]
4 | > 10000 | 43 | > 10000 | > 10000 | 47 | Cc1cc(Nc2ncc(Cl)c(Nc3cn(C)nc3S(=O)(=O)C(C)C)n2)c(OC2CC2)cc1C1CCN(C(=O)C(F)(F)F)CC1 [Final product 161, 1-trifluoroacetyl-4-(4-(5-chloro-4-(3-(isopropylsulfonyl)-1-methyl-1H-pyrazol-4-amino)pyrimidin-2-amine)-5-cyclopropoxy-2-methylphenyl)piperidine] | 
5 | > 10000 | 3 | > 10000 | > 10000 | 26 | Cc1cc(Nc2ncc(Cl)c(Nc3cn(C)nc3S(=O)(=O)C(C)C)n2)c(OC2CC2)cc1C1CC(C)N(C)C(C)C1 (stereo not shown) [Final product 95] | 
